Read-outs that look alike come from different tables or passages of the source.

This test deals with MDA-MB-231 cells. The experiment in a line: Tumour cell killing using antibody-Saporin conjugates (XTT/PMS viability). The test is classed as cell-based, human. The protocol:
For generation of immunotoxin, the chimeric MAb was non-covalently coupled to a plant toxin Saporin using FabFc-ZAP human conjugate (4.5 nM final concentration) (Advanced Targeting Systems, Cat. no. IT-65). The effect of chAb-Saporin internalization on tumour cell viability was tested using Axl-positive tumour cell line MDA-MB-231 (human triple negative breast carcinoma). Eight hundred cells were seeded per well in 96-well plates in DMEM/F-12 media supplied with 10% FBS, L-glutamine (4 mM), streptomycin (5 μg/ml) and penicillin (5 U/ml) and allowed to attach for 16 hours. The cells were incubated with different dilutions of immunotoxin chAb-Saporin for 72 hrs. The viability of the cells was determined by performing an XTT/PMS assay using a CLARIOstar® microplate reader (BMG LABTECH)
Unconjugated Saporin and an isotype control antibody (human IgG1) coupled to Saporin (control SAP) were used as negative controls.
Tumour cell killing using antibody-Saporin conjugates performed as described in Example 20. A comparison of two variants of humanised 10G5 and YW327.6S2 was performed.
A general note: Tetrazolium assays rely on reduction of a dye to a coloured formazan, in cell work by metabolically active cells.

On to Saporin, for which the EC50 was found to be 99.1 nM (Table 4, antibody coupled to Saporin via FabFc-ZAP, MDA-MB-231, 72 hrs, read-out: EC50 (effective concentration leading to 50% cell killing)) and 247 nM (Table 5, antibody-Saporin conjugates as in Example 20, MDA-MB-231, read-out: EC50 (cell killing)).

The values are drawn from patent publication US11732048B2, “Anti-axl antagonistic antibodies” (BERGEN TEKNOLOGIOVERFØRING AS, priority 2016, dated 2023).
